Measurements as given in US20230287003A1, “BCL6 INHIBITORS” (Cancer Research Technology Limited, priority 2018, published 2023).
pIC50: −log10 of the molar value.

Target: human BCL6 BTB domain (Trx-6×His-BCL6) / BCOR-AF633 peptide (Homo sapiens (Human), UniProt P41182)
Experiment: HTRF assay
Format: binding
Conditions: 1 nM Trx-6×His-BCL6, 300 nM BCOR-AF633 peptide, 2 hours incubation

Row | Molecule | HTRF avg pIC50 (1 nM)
1 | CCC1CCOc2c(c3cc(Nc4ccnc(Cl)c4C#N)ccc3n(C)c2=O)N1 (stereo not drawn) [Example 1c, 2-chloro-4-((2-ethyl-7-methyl-6-oxo-1,2,3,4,6,7-hexahydro-[1,4]oxazepino[2,3-c]quinolin-10-yl)amino)nicotinonitrile] | 6.32
2 | Cn1c(=O)c2c(c3cc(Nc4nc(N5CCN(CCC#N)CC5)ncc4Cl)ccc31)N[C@@H](C1CC1)C(F)(F)CO2 [Example 13f, (S)-3-(4-(5-chloro-4-((2-cyclopropyl-3,3-difluoro-7-methyl-6-oxo-1,2,3,4,6,7-hexahydro-[1,4]oxazepino[2,3-c]quinolin-10-yl)amino)pyrimidin-2-yl)piperazin-1-yl)propanenitrile] | 8.66
3 | CN1CC2(C1)CN(c1ncc(Cl)c(Nc3ccc4c(c3)c3c(c(=O)n4C)OCC(F)(F)[C@H](C4CC4)N3)n1)C2 [Example 13g, (S)-10-((5-chloro-2-(6-methyl-2,6-diazaspiro[3.3]heptan-2-yl)pyrimidin-4-yl)amino)-2-cyclopropyl-3,3-difluoro-7-methyl-1,2,3,4-tetrahydro-[1,4]oxazepino[2,3-c]quinolin-6(7H)-one: formic acid (1:2)] | 8.50
4 | CN1CC2CC(C1)N2c1ncc(Cl)c(Nc2ccc3c(c2)c2c(c(=O)n3C)OCC(F)(F)[C@H](C3CC3)N2)n1 [Example 13h, (2S)-10-((5-chloro-2-(3-methyl-3,6-diazabicyclo[3.1.1]heptan-6-yl)pyrimidin-4-yl)amino)-2-cyclopropyl-3,3-difluoro-7-methyl-1,2,3,4-tetrahydro-[1,4]oxazepino[2,3-c]quinolin-6(7H)-one: formic acid (1:1)] | 8.43
5 | CN1CCN(c2ncc(F)c(Nc3ccc4c(c3)c3c(c(=O)n4C)OCC(F)(F)[C@H](C4CC4)N3)n2)CC1=O [Example 13i, (S)-2-cyclopropyl-3,3-difluoro-10-((5-fluoro-2-(4-methyl-3-oxopiperazin-1-yl)pyrimidin-4-yl)amino)-7-methyl-1,2,3,4-tetrahydro-[1,4]oxazepino[2,3-c]quinolin-6(7H)-one] | 8.45
6 | Cn1c(=O)c2c(c3cc(Nc4nc(N5C6CCC5COC6)ncc4F)ccc31)N[C@@H](C1CC1)C(F)(F)CO2 [Example 13j, (S)-10-((2-(3-oxa-8-azabicyclo[3.2.1]octan-8-yl)-5-fluoropyrimidin-4-yl)amino)-2-cyclopropyl-3,3-difluoro-7-methyl-1,2,3,4-tetrahydro-[1,4]oxazepino[2,3-c]quinolin-6(7H)-one] | 8.60
7 | (R)-10-((5-chloro-2-((R)-4,4-difluoro-3- hydroxypiperidin-1-yl)pyrimidin-4-yl)amino)-2-cyclopropyl-7- methyl-1,2,3,4-tetrahydro-[1,4]oxazepino[2,3-c]quinolin-6(7H)- one or (R)-10-((5-chloro-2((S)-4,4-difluoro-3-hydroxypiperidin-1- yl)pyrimidin-4-yl)amino)-2-cyclopropyl-7-methyl-1,2,3,4- tetrahydro-[1,4]oxazepino[2,3-c]quinolin-6(7H)-one [Example 12y] | 7.73
8 | (R)-10-((5-chloro-2-((R)-4,4-difluoro-3- methylpiperidin-1-yl)pyrimidin-4-yl)amino)-2-cyclopropyl-7- methyl-1,2,3,4-tetrahydro-[1,4]oxazepino[2,3-c]quinolin- 6(7H)-one or (R)-10-((5-chloro-2-((S)-4,4-difluoro-3- methylpiperidin-1-yl)pyrimidin-4-yl)amino)-2-cyclopropyl- 7-methyl-1,2,3,4-tetrahydro-[1,4]oxazepino[2,3-c]quinolin- 6(7H)-one [Example 14b] | 6.98
9 | (S)-10-((5-chloro-2-((1S,5R)-3-methyl-2-oxo-3,8- diazabicyclo[3.2.1]octan-8-yl)pyrimidin-4-yl)amino)-2-cyclopropyl- 3,3-difluoro-7-methyl-1,2,3,4-tetrahydro-[1,4]oxazepino[2,3-c]quinolin- 6(7H)-one and (S)-10-((5-chloro-2-((1R,5S)-3-methyl-2-oxo-3,8- diazabicyclo[3.2.1]octan-8-yl)pyrimidin-4-yl)amino)-2-cyclopropyl- 3,3-difluoro-7-methyl-1,2,3,4-tetrahydro- [1,4]oxazepino[2,3-c]quinolin-6(7H)-one [Example 13b] | 8.59
10 | (S)-10-((5-chloro-2-((3R,5S)-3-hydroxy-5- methylpiperidin-1-yl)pyrimidin-4-yl)amino)-2,7-dimethyl-1,2,3,4- tetrahydro-[1,4]oxazepino[2,3-c]quinolin-6(7H)-one or (S)-10-((5- chloro-2-((3S,5R)-3-hydroxy-5-methylpiperidin-1-yl)pyrimidin-4- yl)amino)-2,7-dimethyl-1,2,3,4-tetrahydro- [1,4]oxazepino[2,3-c]quinolin-6(7H)-one [Example 12k] | 7.04
11 | (S)-10-((5-chloro-2-((3S,5R)-3-hydroxy-5- methylpiperidin-1-yl)pyrimidin-4-yl)amino)-2,7-dimethyl-1,2,3,4- tetrahydro-[1,4]oxazepino[2,3-c]quinolin-6(7H)-one or (S)-10-((5- chloro-2-((3R,5S)-3-hydroxy-5-methylpiperidin-1-yl)pyrimidin-4- yl)amino)-2,7-dimethyl-1,2,3,4-tetrahydro- [1,4]oxazepino[2,3-c]quinolin-6(7H)-one [Example 12l] | 6.99
12 | (S)-10-((5-chloro-2-((R)-4,4-difluoro-3- (hydroxymethyl)piperidin-1-yl)pyrimidin-4-yl)amino)-2-cyclopropyl- 3,3-difluoro-7-methyl-1,2,3,4-tetrahydro-[1,4]oxazepino[2,3-c]quinolin- 6(7H)-one or (S)-10-((5-chloro-2-((S)-4,4-difluoro-3- (hydroxymethyl)piperidin-1-yl)pyrimidin-4-yl)amino)-2-cyclopropyl- 3,3-difluoro-7-methyl-1,2,3,4-tetrahydro-[1,4]oxazepino[2,3-c]quinolin- 6(7H)-one [Example 12p] | 8.34
13 | (S)-10-((5-chloro-2-((S)-4,4-difluoro-3- (hydroxymethyl)piperidin-1-yl)pyrimidin-4-yl)amino)-2-cyclopropyl- 3,3-difluoro-7-methyl-1,2,3,4-tetrahydro-[1,4]oxazepino[2,3-c]quinolin- 6(7H)-one or (S)-10-((5-chloro-2-((R)-4,4-difluoro-3- (hydroxymethyl)piperidin-1-yl)pyrimidin-4-yl)amino)-2-cyclopropyl- 3,3-difluoro-7-methyl-1,2,3,4-tetrahydro-[1,4]oxazepino[2,3-c]quinolin- 6(7H)-one [Example 12q] | 8.65

Second part, the molecule after the results:

Row | HTRF avg pIC50 (1 nM) | Molecule
14 | 7.17 | C[C@@H]1CN(c2ncc(Cl)c(Nc3ccc4c(c3)c3c(c(=O)n4CCO)OCC[C@H](C4CC4)N3)n2)C[C@H](C)C1(F)F [Example 16a, (R)-10-((5-chloro-2-((3S,5R)-4,4-difluoro-3,5-dimethylpiperidin-1-yl)pyrimidin-4-yl)amino)-2-cyclopropyl-7-(2-hydroxyethyl)-1,2,3,4-tetrahydro-[1,4]oxazepino[2,3-c]quinolin-6(7H)-one]
15 | 7.15 | CNCCn1c(=O)c2c(c3cc(Nc4nc(N5C[C@@H](C)C(F)(F)[C@@H](C)C5)ncc4Cl)ccc31)N[C@@H](C1CC1)CCO2 [Example 17a, (R)-10-((5-chloro-2-((3S,5R)-4,4-difluoro-3,5-dimethylpiperidin-1-yl)pyrimidin-4-yl)amino)-2-cyclopropyl-7-(2-(methylamino)ethyl)-1,2,3,4-tetrahydro-[1,4]oxazepino[2,3-c]quinolin-6(7H)-one]
16 | 6.58 | CC1CNC(=O)c2c(c3cc(Nc4ccnc(Cl)c4C#N)ccc3n(C)c2=O)N1 (stereo not drawn) [Example 18a, 2-chloro-4-((2,7-dimethyl-5,6-dioxo-2,3,4,5,6,7-hexahydro-1H-[1,4]diazepino[6,5-c]quinolin-10-yl)amino)nicotinonitrile]
17 | 7.51 | (R)-10-((5-chloro-2-((R)-4,4-difluoro-3- (hydroxymethyl)piperidin-1-yl)pyrimidin-4-yl)amino)-2- cyclopropyl-7-methyl-1,2,3,4-tetrahydro- [1,4]oxazepino[2,3-c]quinolin-6(7H)-one or (R)-10-((5-chloro- 2-((S)-4,4-difluoro-3-(hydroxymethyl)piperidin-1-yl)pyrimidin- 4-yl)amino)-2-cyclopropyl-7-methyl-1,2,3,4-tetrahydro- [1,4]oxazepino[2,3-c]quinolin-6(7H)-one [Example 15b]
18 | 7.55 | (R)-10-((5-chloro-2-((S)-4,4-difluoro-3- (hydroxymethyl)piperidin-1-yl)pyrimidin-4-yl)amino)-2- cyclopropyl-7-methyl-1,2,3,4-tetrahydro- [1,4]oxazepino[2,3-c]quinolin-6(7H)-one or (R)-10-((5-chloro- 2-((R)-4,4-difluoro-3-(hydroxymethyl)piperidin-1-yl)pyrimidin- 4-yl)amino)-2-cyclopropyl-7-methyl-1,2,3,4-tetrahydro- [1,4]oxazepino[2,3-c]quinolin-6(7H)-one [Example 15c]

Same assay, conditions: HTRF avg pIC50 (1 nM), 1 nM Trx-6×His-BCL6, 300 nM BCOR-AF633 peptide, 2 hours incubation

Row | Molecule | pIC50
19 | CC1Nc2c(c(=O)n(C)c3ccc(Nc4nc(N5C[C@H](C)C[C@H](C)C5)ncc4Cl)cc23)C(=O)OC1C (mixture of isomers) [Example 8p, rac-(2S,3R)-10-((5-chloro-2-((3S,5R)-3,5-dimethylpiperidin-1-yl)pyrimidin-4-yl)amino)-2,3,7-trimethyl-2,3-dihydro-[1,4]oxazepino[6,5-c]quinoline-5,6(1H,7H)-dione or rac-(2S,3S)-10-((5-chloro-2-((3S,5R)-3,5-dimethylpiperidin-1-yl)pyrimidin-4-yl)amino)-2,3,7-trimethyl-2,3-dihydro-[1,4]oxazepino[6,5-c]quinoline-5,6(1H,7H)-dione] | 6.56

Target: BCL6-NCOR2(SMRT) corepressor protein-protein interaction (Homo sapiens (Human), UniProt P41182)
Experiment: NanoBRET cell assay
Format: cell-based
Conditions: read-out: NanoBRET cell avg pIC50 (converted)
Excerpt: At 20 hr post-transfection, cells were collected, washed with PBS, and exchanged into media containing phenol red-free OptiMEM+4% FBS (Life Technology).

Row | Molecule | IC50
20 | CC1Nc2c(c(=O)n(C)c3ccc(Nc4nc(N5C[C@H](C)C[C@H](C)C5)ncc4Cl)cc23)C(=O)OC1C (mixture of isomers) [Example 8p, rac-(2S,3R)-10-((5-chloro-2-((3S,5R)-3,5-dimethylpiperidin-1-yl)pyrimidin-4-yl)amino)-2,3,7-trimethyl-2,3-dihydro-[1,4]oxazepino[6,5-c]quinoline-5,6(1H,7H)-dione or rac-(2S,3S)-10-((5-chloro-2-((3S,5R)-3,5-dimethylpiperidin-1-yl)pyrimidin-4-yl)amino)-2,3,7-trimethyl-2,3-dihydro-[1,4]oxazepino[6,5-c]quinoline-5,6(1H,7H)-dione] | 25.7 µM
21 | CCC1CCOc2c(c3cc(Nc4ccnc(Cl)c4C#N)ccc3n(C)c2=O)N1 (stereo not drawn) [Example 1c, 2-chloro-4-((2-ethyl-7-methyl-6-oxo-1,2,3,4,6,7-hexahydro-[1,4]oxazepino[2,3-c]quinolin-10-yl)amino)nicotinonitrile] | 8.71 µM
